Tests used:
[1] = aminocarbonyl (Maillard) reaction of the saccharide product; assay type: physicochemical; conditions: product as obtained
[2] = reducibility of the saccharide product; assay type: physicochemical; conditions: product as obtained

aminocarbonyl reaction [1]	reducibility [2]	Structure (SMILES)
hardly causes amino carbonyl reaction	substantially no reducibility	OC[C@H]1O[C@H](OC[C@H]2O[C@H](O[C@@H]3[C@@H](O)[C@@H](O[C@H]4O[C@H](CO)[C@@H](O)[C@H](O)[C@H]4O)O[C@H](CO)[C@H]3O)[C@H](O)[C@@H](O)[C@@H]2O)[C@H](O)[C@@H](O)[C@@H]1O [Example 3, 3-α-isomaltosyl α,α-trehalose]
hardly causes aminocarbonyl reaction	substantially no reducibility	OC[C@H]1O[C@H](O[C@H]2O[C@H](CO)[C@@H](O)[C@H](O[C@H]3O[C@H](CO)[C@@H](O)[C@H](O)[C@H]3O)[C@H]2O)[C@H](O)[C@@H](O)[C@@H]1O [Example 5, 3-α-glucosyl α,α-trehalose]
